Test results from patent US4029801A, “Pharmaceutical compositions and methods of treating hypertension” (priority 1970, dated 1977).
Read-outs that look alike come from different tables or passages of the source. One block for each compound: values may come before it.

How the values were obtained:
[1] = Depressant activity; format: in vivo; settings: result in words
[2] = test system: blood pressure; assay: Tests for action on the cardiovascular system: hypotensive activity (activity in method 1, rats or cats, or method 2), reported in words; format: in vivo, rat, cat; settings: standard test procedure, result in words
Method: Tests for action on the cardiovascular system were conducted according to one of the following procedures:
Cats were anaesthetised with pentobarbitone sodium (30 mg/kg) and the cephalic vein, femoral and carotid arteries and trachea were cannulated. The carotid cannula was introduced into the left ventricle and the femoral cannula into the aorta. Blood pressure and heart rate were recorded from the aortic cannula and left ventricular pressure from the carotid cannula. The test compunds were administered intravenously (0.1-25.6 mg/kg).
(§1) Method 2 (hypertensive rats)
(§2) Male or female rats are rendered hypertensive by applying a figure of 8 ligature around one kidney and contralateral nephrectomy. Blood pressure stabilises at a hypertensive level after 6 weeks. Systolic pressure is measured indirectly using a Decker Caudal Plethysmograph A control group of rats is run with each group treated with drug. Each group usually consists of six rats. Drugs are usually administered by the IP or oral routes. Pressures are read prior to drug administration and at two and 24 hours thereafter.

[3] = test system: blood pressure and heart rate; assay: Method 1 (rat): hypotensive activity in anaesthetised rats, i.v.; settings: for minimal effective dose: Rattus norvegicus, iv; for Significant bradycardia (dose; decrease in heart rate of more than 30%): anaesthetised rat, i.v., cumulative dose
Method: Rats were anaesthetised with pentobarbitone sodium (60 mg/kg) and the jugular vein, trachea and carotid artery were cannulated. […] A decrease in heart rate of more than 30% from control values was considered to be significant bradycardia.

[4] = target: T1, histamine (Cavia porcellus, UniProt P31389); assay: Antihistamine activity by the method of Alps et al.; settings: for antihistamine activity: result in words
T1 construct: from tissue
T1 sequence (P31389 whole entry): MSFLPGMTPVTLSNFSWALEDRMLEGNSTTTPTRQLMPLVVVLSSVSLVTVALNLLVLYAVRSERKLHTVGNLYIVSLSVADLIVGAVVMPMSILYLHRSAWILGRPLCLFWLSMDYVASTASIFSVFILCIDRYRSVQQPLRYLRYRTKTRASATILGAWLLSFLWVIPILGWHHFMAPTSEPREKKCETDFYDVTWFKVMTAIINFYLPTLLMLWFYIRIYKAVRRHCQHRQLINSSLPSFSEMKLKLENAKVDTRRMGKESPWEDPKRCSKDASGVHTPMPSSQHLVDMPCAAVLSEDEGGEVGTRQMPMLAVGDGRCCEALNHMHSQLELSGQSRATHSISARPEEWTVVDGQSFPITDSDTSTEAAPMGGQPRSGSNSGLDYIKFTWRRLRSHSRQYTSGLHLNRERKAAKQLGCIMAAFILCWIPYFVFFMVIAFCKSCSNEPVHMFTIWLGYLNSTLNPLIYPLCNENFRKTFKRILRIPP

[5] = test system: α-adrenoceptor; assay: α-Adrenoceptor antagonism on the guinea pig aortic strip; settings: for α-blockade pA2: Table 4; for α-adrenoceptor antagonism: result in words; for pA2 (α-adrenoceptor antagonism): guinea pig aortic strip
Excerpt: Carried out on the guinea pig aortic strip [Furchgott and Bhadrakom (1953) J. Pharmac. exp. Ther. 108, 129-143] by the method of Alps et al [Br. J. Pharmac. 1972 44, 52-62].

[6] = test system: tremorine; assay: Anti-tremorine activity; format: in vivo; settings: result in words
[7] = Anti-inflammatory activity; format: in vivo; settings: result in words
[8] = test system: systolic pressure; assay: Method 2: anti-hypertensive activity in renal hypertensive rats; format: in vivo, rat; settings: hypertensive rat
Method: as §1, §2
Falls in systolic blood pressure 2 hr after an oral dose of 40 mg/kg: >50
mm, +++; 50-30 mm, ++; 30-15 mm, +; <15 mm, ±. g Oral dose of 75 mg/kg
h Oral dose of 10 mg/kg. i Oral dose of 2.5 mg/kg.

[9] = 0.25 h, read-out: Hypotensive Activity
[10] = Table 4, read-out: Antihistamine pA2 (converted)
[11] = read-out: Significant hypotension (dose; fall of 30 mm mercury or more in diastolic pressure)
[12] = pA2 (antihistamine activity), Table 2

SMILES: COc1ccc(CCN2CCC(N)CC2)cc1OC [Example 4, 1-[2-(3,4-Dimethoxyphenyl)ethyl]-4-aminopiperidine]
depressant activity [1]: depressant activity
hypotensive activity [2]: hypotensive

SMILES: COc1ccc(CCN2CCC(NC(=O)c3ccc4c(c3)OCO4)CC2)cc1OC [Example 7, 1-[2-(3,4-Dimethoxyphenyl)ethyl]-4-piperonylamidopiperidine]
minimal effective dose [3, 9]: < 30 mg/kg
depressant activity [1]: depressant activity
hypotensive activity [2]: hypotensive

antihistamine activity [4]: antihistamine
SMILES: O=C(NC1CCN(CCc2ccc(O)c(O)c2)CC1)c1ccccc1 [Example 9, 1-[2(3,4-Dihydroxyphenyl)ethyl]-4-benzamidopiperidine]
minimal effective dose [3, 9]: < 30 mg/kg
depressant activity [1]: depressant activity

SMILES: O=C(CN1CCC(NC(=O)c2ccccc2)CC1)c1ccccc1 [Example 10, 1-Phenacyl-4-benzamidopiperidine]
minimal effective dose [3, 9]: 6.4 to 12.8 mg/kg
depressant activity [1]: depressant activity
hypotensive activity [2]: hypotensive
α-blockade pA2 [5]: 5.8

SMILES: CC(=O)Nc1ccc(O)c(CN2CCC(NC(=O)c3ccccc3)CC2)c1 [Example 18, 1-(5-Acetamido-2-hydroxybenzyl)-4-benzamidopiperidine]
minimal effective dose [3, 9]: < 30 mg/kg
depressant activity [1]: depressant activity

SMILES: O=C(NC1CCN(CC(O)COc2cccc3ccccc23)CC1)c1ccccc1 (centres unmarked) [Example 21, 1-[3-(1-Naphthoxy)-2-hydroxyprop-1-yl]-4-benzamidopiperidine]
minimal effective dose [3, 9]: 6.4 to 12.8 mg/kg
depressant activity [1]: some depressant activity
hypotensive activity [2]: hypotensive activity

SMILES: O=C(NC1CCN(CCc2ccc([N+](=O)[O-])cc2)CC1)c1ccccc1 [Example 22, 1-[2-(p-Nitrophenyl)ethyl]-4-benzamidopiperidine]
minimal effective dose [3, 9]: 25.6 mg/kg
depressant activity [1]: depressant
anti-tremorine activity [6]: anti-tremorine activities
hypotensive activity [2]: hypotensive activity

SMILES: Nc1ccc(CCN2CCC(NC(=O)c3ccccc3)CC2)cc1 [Example 23, 1-[2-(p-Aminophenyl)ethyl]-4-benzamidopiperidine]
minimal effective dose [3, 9]: < 30 mg/kg
depressant activity [1]: depressant activity
hypotensive activity [2]: hypotensive activity

SMILES: CC(=O)Nc1ccc(CCN2CCC(NC(=O)c3ccccc3)CC2)cc1 [Example 24, 1-[2-(p-Acetamidophenyl)ethyl]-4-benzamidopiperidine]
minimal effective dose [3, 9]: 6.4 to 12.8 mg/kg
depressant activity [1]: depressant
anti-tremorine activity [6]: anti-tremorine activities
hypotensive activity [2]: hypotensive activity

SMILES: O=C(CN1CCC(NC(=O)c2ccccc2)CC1)c1ccc(Cl)c(Cl)c1 [Example 34]
minimal effective dose [3, 9]: < 30 mg/kg
depressant activity [1]: depressant activities
hypotensive activity [2]: hypotensive

SMILES: Nc1ccccc1CCN1CCC(NC(=O)c2ccccc2)CC1 [Example 35, 1-[2-(o-Aminophenyl)ethyl]-4-benzamidopiperidine]
minimal effective dose [3, 9]: 6.4 to 12.8 mg/kg
depressant activity [1]: depressant activities
hypotensive activity [2]: hypotensive

Kb [4, 10]: 3.98 nM
antihistamine activity [4]: antihistamine
SMILES: O=C(NC1CCN(CCc2ccc(Cl)c(Cl)c2)CC1)c1ccccc1 [Example 37, 1-[2-(3,4-Dichlorophenyl)ethyl]-4-benzamidopiperidine]
minimal effective dose [3, 9]: 1.6 to 3.2 mg/kg
anti-tremorine activity [6]: anti-tremorine activities
hypotensive activity [2]: good hypotensive activity
α-blockade pA2 [5]: 7.35
α-adrenoceptor antagonism [5]: α-adrenoceptor antagonism

SMILES: O=C(NC1CCN(CCc2c(Cl)cccc2Cl)CC1)c1ccccc1 [Example 38, 1-[2-(2,6-Dichlorophenyl)ethyl]-4-benzamidopiperidine]
minimal effective dose [3, 9]: < 30 mg/kg
depressant activity [1]: depressant activities
anti-tremorine activity [6]: anti-tremorine
hypotensive activity [2]: hypotensive activity

Kb [4, 10]: 2.51 nM
Kb [4, 12]: 3.16 nM
antihistamine activity [4]: anti-histamine
SMILES: O=C(NC1CCN(CCCc2ccccc2)CC1)c1ccccc1 [Example 39, 1-[3-Phenylpropyl]-4-benzamidopiperidine]
minimal effective dose [3, 9]: 6.4 to 12.8 mg/kg
minimal effective dose [3, 11]: 0.8 to 6.4 mg/kg
Significant bradycardia (dose; decrease in heart rate of more than 30%) [3]: 25.6 mg/kg
anti-tremorine activity [6]: anti-tremorine activities
hypotensive activity [2]: good hypotensive activity
pA2 (α-adrenoceptor antagonism) [5]: 7.1
α-adrenoceptor antagonism [5]: α-adrenoceptor antagonism

antihistamine activity [4]: antihistamine
SMILES: O=C(CCCN1CCC(NC(=O)c2ccccc2)CC1)c1ccc(F)cc1 [Example 42, 4-benzamido-1-[4-(p-fluorophenyl)-4-oxobutyl]-piperidine]
anti-inflammatory activity [7]: anti-inflammatory activity
hypotensive activity [2]: marked hypotensive activity
α-adrenoceptor antagonism [5]: α-adrenoceptor antagonist

SMILES: O=C(NC1CCN(Cc2ccc3c(c2)OCO3)CC1)c1ccccc1 [Example 47, 4-Benzamido-1-(3,4-methylenedioxybenzyl)piperidine]
minimal effective dose [3, 9]: 25.6 mg/kg
anti-inflammatory activity [7]: anti-inflammatory activity
hypotensive activity [2]: hypotensive activity

Kb [4, 10]: 20 nM
antihistamine activity [4]: anti-histamine
SMILES: O=C(CCCN1CCC(NC(=O)c2ccccc2)CC1)c1ccc(Cl)cc1 [Example 51, 4-Benzamido-1-[4-(p-chlorophenyl)-4-oxobutyl]piperidine]
minimal effective dose [3, 9]: 6.4 to 12.8 mg/kg
anti-inflammatory activity [7]: anti-inflammatory activity
hypotensive activity [2]: hypotensive activity
α-blockade pA2 [5]: 8.4
α-adrenoceptor antagonism [5]: highly potent α-adrenoceptor antagonist activity

SMILES: O=C(NC1CCN(CCCC(O)c2ccc(F)cc2)CC1)c1ccccc1 (centres unmarked) [Example 54, 1-[4-(p-Fluorophenyl)-4-hydroxybutyl]-4-benzamidopiperidine]
minimal effective dose [3, 9]: 6.4 to 12.8 mg/kg
minimal effective dose [3, 11]: 6.4 to 12.8 mg/kg
Significant bradycardia (dose; decrease in heart rate of more than 30%) [3]: 6.4 to 12.8 mg/kg
Kb [4, 12]: 316 nM
antihistamine activity [4]: potent antihistamine activity
hypotensive activity [2]: hypotensive activity
Pressure reduced to ([8]; 10 mg/kg, from 209 mmHg): 164 mmHg
toxicity ([8]; 40 m.p.k.): Toxic
pA2 (α-adrenoceptor antagonism) [5]: 6.6

antihistamine activity [4]: antihistamine
SMILES: O=C(NC1CCN(CCc2ccccn2)CC1)c1ccccc1 [Example 94, 1-[2-(2-Pyridyl)ethyl]-4-benzamidopiperidine]
depressant activity [1]: depressant activities
hypotensive activity [2]: marked hypotensive activity

SMILES: O=C(NC1CCN(CCc2c[nH]c3c2ccc2ccccc23)CC1)c1ccccc1 [Example 101, 1-[2-(3-Benz[g]indolyl)ethyl]-4-benzamidopiperidine]
minimal effective dose [3, 9]: 6.4 to 12.8 mg/kg
depressant activity [1]: depressant activity
hypotensive activity [2]: marked hypotensive activity

SMILES: O=C(NC1CCN(CC2COc3ccccc3O2)CC1)c1ccccc1 (centres unmarked) [Example 102, 2-(4'-Benzamidopiperid-1-yl)methylbenzo-1,4-dioxan]
anti-inflammatory activity [7]: anti-inflammatory activity
hypotensive activity [2]: marked hypotensive activity
